According to paper PMC7069944, “Amino acid levels determine metabolism and CYP450 function of hepatocytes and hepatoma cell lines” (Nature Communications, 2020):
“And” between values parts separate entries of the source, which are not always exact repeats. Identical values can stand only once.

How the values were obtained:
CYP3A4 [1] = assay: qRT-PCR CYP3A4 expression in HepG2; assay type: cell-based, human
Protocol: AA supplementation was accomplished through the addition of MEM Non-Essential Amino Acids Solution (100 × ) and MEM Amino Acids Solution (50 × ) (Thermo Scientific) to the culture medium. For AA1, AA2, and AA3 medium, we added respectively 2 ml, 8 ml, and 16 ml of non-essential AA solution and 1 ml, 4 ml, and 8 ml of essential AA solution per 100 ml of LDM, with or without glucose. Culture medium was then made PH neutral through the addition of NaOH. […] PSC derived HLCs were differentiated in LDM until D12. AA supplementation (AA1, AA2 and AA3) was performed from day 12 until day 20, 30 or 40 of differentiation. […] HepG2, HUH7.5, Hep3B, HHL5, and HEK293 cells were maintained in DMEM supplemented with 10% fetal bovine serum as shown in Supplementary Table 4. AA supplementation consisted of addition of 16 ml of non-essential AA mix and 8 ml of essential AA mix per 100 ml of medium and a further addition of 20 g/l of any of the single AAs. […] PHHs were maintained in a medium composition that was based on WE as detailed in ref. [67].
RNA extraction was performed using the GenElute Mammalian Total RNA Miniprep Kit (Sigma-Aldrich). Then, genomic DNA was eliminated using the On-Column DNase I Digestion kit (Sigma-Aldrich). Last, 1 µg of RNA was transcribed to cDNA using the Superscript III First-Strand synthesis (Invitrogen). Gene expression analysis was performed using the Platinum SYBR green qPCR supermix-UDG kit (Invitrogen) in a ViiA 7 Real-Time PCR instrument (Thermo Scientific, Waltham, MA). The sequences of all used qRT-PCR primers are listed in Supplementary Table 6. Of these, ribosomal protein L19 (RPL19) was used as a housekeeping gene for normalization.

CYP3A4 [2] = assay: qRT-PCR CYP3A4 expression in HLCs; assay type: cell-based, human; conditions: HLCs in AA3 medium with or without 2% of the single amino acid or mix; Figure 4B
Protocol: AA supplementation was accomplished through the addition of MEM Non-Essential Amino Acids Solution (100 × ) and MEM Amino Acids Solution (50 × ) (Thermo Scientific) to the culture medium. For AA1, AA2, and AA3 medium, we added respectively 2 ml, 8 ml, and 16 ml of non-essential AA solution and 1 ml, 4 ml, and 8 ml of essential AA solution per 100 ml of LDM, with or without glucose. Culture medium was then made PH neutral through the addition of NaOH. […] PSC derived HLCs were differentiated in LDM until D12. AA supplementation (AA1, AA2 and AA3) was performed from day 12 until day 20, 30 or 40 of differentiation. […] HepG2, HUH7.5, Hep3B, HHL5, and HEK293 cells were maintained in DMEM supplemented with 10% fetal bovine serum as shown in Supplementary Table 4. AA supplementation consisted of addition of 16 ml of non-essential AA mix and 8 ml of essential AA mix per 100 ml of medium and a further addition of 20 g/l of any of the single AAs. Hepatoma cell lines were plated in normal culture medium, with addition of AA3 + 20 g/l AA once cells reached 60% confluency, and this for 3 or 7 additional days of culture. PHHs were maintained in a medium composition that was based on WE as detailed in ref. [67].
RNA extraction was performed using the GenElute Mammalian Total RNA Miniprep Kit (Sigma-Aldrich). Then, genomic DNA was eliminated using the On-Column DNase I Digestion kit (Sigma-Aldrich). […]

CYP3A4 [3] = conditions: HepG2 in AA3+GLY medium with rapamycin
Protocol: Protein amount was measured using a pierce BCA protein assay kit (Thermo Scientific).

Relative CYP3A4 expression (CYP3A4 [1]; single amino acid supplementation, relative to CTL (CTL values equal HepG2 D7 CTL)) | relative CYP3A4 expression (compared to LDM 2% DMSO D20) (CYP3A4 [2]) | Relative CYP3A4 expression (CYP3A4 [1]; HepG2 AAGLY D30 with RAPA) | effect on AA-mediated induction of CYP3A4 (CYP3A4 [3]) | SMILES
39.34 and 55.9446 and 51.9815 | 50.8533 and 59.0748 and 76.4937 |  |  | CC(C)[C@H](N)C(=O)O [VAL, valine]
 |  | 1.244 and 1.301 and 1.514 | blocked the induction of CYP3A4 | CO[C@H]1C[C@@H]2CC[C@@H](C)[C@@](O)(O2)C(=O)C(=O)N2CCCC[C@H]2C(=O)O[C@H]([C@H](C)C[C@@H]2CC[C@@H](O)[C@H](OC)C2)CC(=O)[C@H](C)/C=C(\C)[C@@H](O)[C@@H](OC)C(=O)[C@H](C)C[C@H](C)/C=C/C=C/C=C/1C [rapamycin]
